Data published in patent US8889874B2, “Imidazolone-chalcone derivatives as potential anticancer agent and process for the preparation thereof” (Council of Scientific and Industrial Research, priority 2010, dated 2014).

Tests used:
Experiment in all cases: NCI anticancer screen, SRB assay, 48 h
Format in all cases: cell-based, human
786-0 (renal) = tested on: 786-0 (renal)
Method: (§1) Some of biological activity studies were carried out at the National Cancer Institute (NCI), Maryland, USA.
(§2) The compounds were evaluated for anticancer activity against fifty three human cancer cells derived from nine cancer types (leukemia cell line, non-small-cell lung cell line, colon cell line, CNS cell line, melanoma cell line, ovarian cell line, prostate cell line, and breast cancer cell line) as shown in Table 1. For each compound, dose response curves for each cell line were measured at a minimum of five concentrations at 10 fold dilutions. A protocol of 48 h continuous drug exposure was used and a sulforhodamine B (SRB) protein assay was used to estimate cell viability or growth.

A498 (renal) = tested on: A498 (renal)
Method: as §1, §2

[1] = tested on: A549/ATCC (non-small cell lung)
Method: as §1, §2

ACHN (renal) = tested on: ACHN (renal)
Method: as §1, §2

CAKI-1 (renal) = tested on: CAKI-1 (renal)
Method: as §1, §2

COLO 205 (colon) = tested on: COLO 205 (colon)
Method: as §1, §2

[2] = tested on: EKVX (non-small cell lung)
Method: as §1, §2

HCC-2998 (colon) = tested on: HCC-2998 (colon)
Method: as §1, §2

HCT-15 (colon) = tested on: HCT-15 (colon)
Method: as §1, §2

[3] = tested on: HOP-62 (non-small cell lung)
Method: as §1, §2

HS 578T (breast) = tested on: HS 578T (breast)
Method: as §1, §2

HT29 (colon) = tested on: HT29 (colon)
Method: as §1, §2

[4] = tested on: K-562 (leukemia cell line)
Method: as §1, §2

KM12 (colon) = tested on: KM12 (colon)
Method: as §1, §2

LOX IMVI (melanoma) = tested on: LOX IMVI (melanoma)
Method: as §1, §2

MALME-3M (melanoma) = conditions: MALME-3M
Method: as §1, §2

MCF7 (breast) = tested on: MCF7 (breast)
Method: as §1, §2

MDA-MB-231/ATCC (breast) = tested on: MDA-MB-231/ATCC (breast)
Method: as §1, §2

MDA-MB-435 (melanoma) = tested on: MDA-MB-435 (melanoma)
Method: as §1, §2

[5] = tested on: NCI-H23 (non-small cell lung)
Method: as §1, §2

[6] = tested on: NCI-H322M (non-small cell lung)
Method: as §1, §2

NCI/ADR-RES (ovarian) = tested on: NCI/ADR-RES (ovarian)
Method: as §1, §2

OVCAR-4 (ovarian) = tested on: OVCAR-4 (ovarian)
Method: as §1, §2

OVCAR-5 (ovarian) = tested on: OVCAR-5 (ovarian)
Method: as §1, §2

OVCAR-8 (ovarian) = tested on: OVCAR-8 (ovarian)
Method: as §1, §2

[7] = tested on: RPMI-8226 (leukemia cell line)
Method: as §1, §2

SK-MEL-5 (melanoma) = tested on: SK-MEL-5 (melanoma)
Method: as §1, §2

SN12C (renal) = tested on: SN12C (renal)
Method: as §1, §2

SNB-19 (CNS) = tested on: SNB-19 (CNS)
Method: as §1, §2

SNB-75 (CNS) = tested on: SNB-75 (CNS)
Method: as §1, §2

TK-10 (renal) = tested on: TK-10 (renal)
Method: as §1, §2

U251 (CNS) = tested on: U251 (CNS)
Method: as §1, §2

UACC-257 (melanoma) = tested on: UACC-257 (melanoma)
Method: as §1, §2

[8] = 48 h exposure, SRB, read-out: GI50

Structure (SMILES): COc1cc(/C=C/C(=O)c2cccc(-n3cc(-c4ccc(Cl)cc4)[nH]c3=O)c2)cc(OC)c1OC [5f, 4-(4-chlorophenyl)-1-3-[(E)-3-(3,4,5-trimethoxyphenyl)-2-propenoyl]phenyl-2,3-dihydro-1H-2-imidazolone]
- pGI50 (-log of molar concentration causing 50% inhibition of net cell growth) (786-0 (renal)): 5.67
- GI50 (786-0 (renal); [8]): 2.14 µM
- pGI50 (-log of molar concentration causing 50% inhibition of net cell growth) (A498 (renal)): 4.52
- GI50 (A498 (renal); [8]): 30.2 µM
- pGI50 (-log of molar concentration causing 50% inhibition of net cell growth) [1]: 4.07
- GI50 [1, 8]: 85.2 µM
- pGI50 (-log of molar concentration causing 50% inhibition of net cell growth) (ACHN (renal)): 5.14
- GI50 (ACHN (renal); [8]): 7.17 µM
- pGI50 (-log of molar concentration causing 50% inhibition of net cell growth) (CAKI-1 (renal)): 4.81
- pGI50 (-log of molar concentration causing 50% inhibition of net cell growth) (COLO 205 (colon); COLO205): 5.13
- GI50 (COLO 205 (colon); COLO 205, 48 h exposure, SRB, read-out: GI50): 7.38 µM
- pGI50 (-log of molar concentration causing 50% inhibition of net cell growth) [2]: 4.62
- pGI50 (-log of molar concentration causing 50% inhibition of net cell growth) (HCC-2998 (colon)): 5.61
- GI50 (HCC-2998 (colon); [8]): 2.46 µM
- pGI50 (-log of molar concentration causing 50% inhibition of net cell growth) (HCT-15 (colon)): 5.41
- GI50 (HCT-15 (colon); [8]): 3.85 µM
- pGI50 (-log of molar concentration causing 50% inhibition of net cell growth) [3]: 4.63
- pGI50 (-log of molar concentration causing 50% inhibition of net cell growth) (HS 578T (breast)): 5.22
- GI50 (HS 578T (breast); [8]): 5.96 µM
- pGI50 (-log of molar concentration causing 50% inhibition of net cell growth) (HT29 (colon)): 5.70
- GI50 (HT29 (colon); [8]): 2 µM
- pGI50 (-log of molar concentration causing 50% inhibition of net cell growth) [4]: 5.43
- GI50 [4, 8]: 3.69 µM
- pGI50 (-log of molar concentration causing 50% inhibition of net cell growth) (KM12 (colon)): 5.26
- GI50 (KM12 (colon); [8]): 5.45 µM
- pGI50 (-log of molar concentration causing 50% inhibition of net cell growth) (LOX IMVI (melanoma)): 5.76
- GI50 (LOX IMVI (melanoma); [8]): 1.72 µM
- pGI50 (-log of molar concentration causing 50% inhibition of net cell growth) (MALME-3M (melanoma)): 4.74
- GI50 (MALME-3M (melanoma); [8]): 18.1 µM
- pGI50 (-log of molar concentration causing 50% inhibition of net cell growth) (MCF7 (breast)): 5.76
- GI50 (MCF7 (breast); [8]): 1.74 µM
- pGI50 (-log of molar concentration causing 50% inhibition of net cell growth) (MDA-MB-231/ATCC (breast)): 4.86
- GI50 (MDA-MB-231/ATCC (breast); [8]): 13.8 µM
- pGI50 (-log of molar concentration causing 50% inhibition of net cell growth) (MDA-MB-435 (melanoma)): 5.44
- GI50 (MDA-MB-435 (melanoma); [8]): 3.63 µM
- pGI50 (-log of molar concentration causing 50% inhibition of net cell growth) [5]: 5.45
- GI50 [5, 8]: 3.56 µM
- pGI50 (-log of molar concentration causing 50% inhibition of net cell growth) [6]: 4.89
- GI50 [6, 8]: 12.9 µM
- pGI50 (-log of molar concentration causing 50% inhibition of net cell growth) (NCI/ADR-RES (ovarian); NCI/ADR-RES): 5.63
- GI50 (NCI/ADR-RES (ovarian); NCl/ADR-RES, 48 h exposure, SRB, read-out: GI50): 2.36 µM
- pGI50 (-log of molar concentration causing 50% inhibition of net cell growth) (OVCAR-4 (ovarian)): 4.94
- GI50 (OVCAR-4 (ovarian); [8]): 11.4 µM
- pGI50 (-log of molar concentration causing 50% inhibition of net cell growth) (OVCAR-5 (ovarian)): 5.51
- GI50 (OVCAR-5 (ovarian); [8]): 3.11 µM
- pGI50 (-log of molar concentration causing 50% inhibition of net cell growth) (OVCAR-8 (ovarian)): 5.41
- GI50 (OVCAR-8 (ovarian); [8]): 3.85 µM
- pGI50 (-log of molar concentration causing 50% inhibition of net cell growth) [7]: 5.41
- GI50 [7, 8]: 3.92 µM
- pGI50 (-log of molar concentration causing 50% inhibition of net cell growth) (SK-MEL-5 (melanoma)): 5.06
- GI50 (SK-MEL-5 (melanoma); [8]): 8.7 µM
- pGI50 (-log of molar concentration causing 50% inhibition of net cell growth) (SN12C (renal); SN 12C): 5.29
- GI50 (SN12C (renal); SN12C, 48 h exposure, SRB, read-out: GI50): 5.14 µM
- pGI50 (-log of molar concentration causing 50% inhibition of net cell growth) (SNB-19 (CNS)): 4.79
- GI50 (SNB-19 (CNS); [8]): 16.1 µM
- pGI50 (-log of molar concentration causing 50% inhibition of net cell growth) (SNB-75 (CNS)): 4.69
- pGI50 (-log of molar concentration causing 50% inhibition of net cell growth) (TK-10 (renal)): 5.19
- GI50 (TK-10 (renal); [8]): 6.46 µM
- pGI50 (-log of molar concentration causing 50% inhibition of net cell growth) (U251 (CNS)): 5.67
- GI50 (U251 (CNS); [8]): 2.12 µM
- pGI50 (-log of molar concentration causing 50% inhibition of net cell growth) (UACC-257 (melanoma)): 4.76
- GI50 (UACC-257 (melanoma); [8]): 17.4 µM
